Measured values: ChEMBL document CHEMBL1130606, “Synthesis and cytotoxicity of acetyl-4H,9H-naphtho[2,3-b]thiophene-4,9-diones” (1998)

How the values were obtained:
[1] = tested on: CCRF-CEM; test: Compound was evaluated for cytotoxicity against CCRF-CEM leukemia cell line; type: functional; conditions: Homo sapiens
[2] = tested on: HCT-15; test: Compound was evaluated for cytotoxicity against HCT-15 colon cancer cell line; type: functional; conditions: Homo sapiens
[3] = tested on: IGROV-1; test: Compound was evaluated for cytotoxicity against IGROV1 Ovarian cancer cell line; type: functional; conditions: Homo sapiens
[4] = tested on: LOX IMVI; test: Compound was evaluated for cytotoxicity against LOX IMVI melanoma cell line; type: functional; conditions: Homo sapiens
[5] = tested on: MDA-N; test: Compound was evaluated for cytotoxicity against MDA-N breast cancer cell line; type: functional; conditions: Homo sapiens
[6] = tested on: MDA-MB-435; test: Compound was evaluated for cytotoxicity against MDA-MB-435 breast cancer cell line; type: functional; conditions: Homo sapiens
[7] = tested on: NCI-H522; test: Compound was evaluated for cytotoxicity against […] non small cell lung cancer cell line; type: functional; conditions: Homo sapiens
[8] = tested on: NCI-H460; test: Compound was evaluated for cytotoxicity against NCI-H460 non small cell lung cancer cell line; type: functional; conditions: Homo sapiens
[9] = tested on: OVCAR-3; test: Compound was evaluated for cytotoxicity against OVCAR-3 Ovarian cancer cell line; type: functional; conditions: Homo sapiens
[10] = tested on: NCI-H23; test: Compound was evaluated for cytotoxicity against NCI-H23 non small cell lung cancer cell line; type: functional; conditions: Homo sapiens
[11] = tested on: SNB-19; test: Compound was evaluated for cytotoxicity against SNB-19 CNS cancer cell line; type: functional; conditions: Homo sapiens
[12] = tested on: SK-MEL-5; test: Compound was evaluated for cytotoxicity against SK-MEL-5 melanoma cell line; type: functional; conditions: Homo sapiens
[13] = tested on: SW-620; test: Compound was evaluated for cytotoxicity against SW-620 colon cancer cell line; type: functional; conditions: Homo sapiens
[14] = tested on: MOLT-4; test: Compound was evaluated for cytotoxicity against MOLT-4 leukemia cell line; type: functional; conditions: Homo sapiens
[15] = tested on: MCF7; test: Compound was evaluated for cytotoxicity against MCF-7 breast cancer cell line; type: functional; conditions: Homo sapiens
[16] = tested on: SF-539; test: Compound was evaluated for cytotoxicity against SF-539 CNS cancer cell line; type: functional; conditions: Homo sapiens
[17] = tested on: NCI/ADR-RES; test: Compound was evaluated for cytotoxicity against MCF 7/ADR-RES breast cancer cell line; conditions: Homo sapiens
[18] = tested on: MCF7; test: Compound was evaluated for cytotoxicity against MCF-7 breast cancer cell lines; type: functional; conditions: Homo sapiens
[19] = tested on: SF-539; test: Compound was evaluated for cytotoxicity against SF-539 CNS cancer cell line; conditions: Homo sapiens
[20] = tested on: SNB-19; test: Compound was evaluated for cytotoxicity against SNB-19 CNS cancer cell line; conditions: Homo sapiens
[21] = tested on: HCT-15; test: Compound was evaluated for cytotoxicity against HCT-15 colon cancer cell line; conditions: Homo sapiens
[22] = tested on: SW-620; test: Compound was evaluated for cytotoxicity against SW-620 colon cancer cell line; conditions: Homo sapiens
[23] = tested on: NCI-H522; test: Compound was evaluated for cytotoxicity against NCI-H522 non small cell lung cancer cell line; conditions: Homo sapiens
[24] = tested on: KB; test: Effective cytotoxic dose against KB cells was evaluated; type: functional; conditions: Homo sapiens, read-out: ED50 (the source's name)
[25] = tested on: NCI-H460; test: Compound was evaluated for cytotoxicity against NCI-H460 non small cell kung cancer cell line; type: functional; conditions: Homo sapiens
[26] = tested on: NCI-H23; test: Compound was evaluated for cytotoxicity against NCI-H23 non small cell kung cancer cell line; type: functional; conditions: Homo sapiens
[27] = tested on: SR; test: Compound was evaluated for cytotoxicity against SR leukemia cell line; type: functional; conditions: Homo sapiens
[28] = tested on: NCI-H522; test: Compound was evaluated for cytotoxicity against […] non small cell kung cancer cell line; type: functional; conditions: Homo sapiens

SMILES	GI50 [1] [nM]	GI50 [2] [nM]	GI50 [3] [nM]	GI50 [4] [nM]	GI50 [5] [nM]	GI50 [6] [nM]	GI50 [8] [nM]	GI50 [9] [nM]	GI50 [10] [nM]	GI50 [11] [nM]	GI50 [12] [nM]	GI50 [13] [nM]	GI50 [14] [nM]	GI50 [15] [nM]	GI50 [16] [nM]	GI50 [17] [nM]	EC50 [24] [nM]	also measured
CC(=O)c1cc2c(s1)C(=O)c1ccccc1C2=O	1000	708	1780	347	1200	339	457	501	447	501	347	457	2040	1700	759	1910		GI50 [7]: 407 nM
CC(=O)c1csc2c1C(=O)c1ccccc1C2=O	1550		2450	2340	933	324	1320	3550	1050		170		< 10			2880		GI50 [18]: 2090 nM; GI50 [19]: 2040 nM; GI50 [20]: 1780 nM; GI50 [21]: 17.4 µM; GI50 [22]: 2190 nM; GI50 [23]: 1740 nM
CC(=O)c1ccc2c(c1)C(=O)c1sc(C(C)=O)cc1C2=O	182	40.7	427	219	316	178		331		1350	174	204	66.1	316	355	324	~1500	GI50 [25]: 363 nM; GI50 [26]: 603 nM; GI50 [27]: 24.6 nM; GI50 [28]: 224 nM
CC(=O)c1cc2c(o1)C(=O)c1ccccc1C2=O [NAPABUCASIN]																	4200	
CC(=O)c1ccc2c(c1)C(=O)c1scc(C(C)=O)c1C2=O																	450	
